Results from patent US20080318933A1, “5-Sulfonyl-1-Piperidinyl Substituted Indole Derivatives as 5-Ht6 Receptor Antagonists for the Treatment of Cns Disorders” (Glaxo Group Limited, priority 2004, published 2008).
Where a name gives a salt, the structure may show the parent alone.

Target: T1, human cloned 5-HT6 receptors (Homo sapiens, UniProt P50406)
T1 construct: expressed in transfected cells; host or cells: HeLa cells expressing cloned human 5-HT6 receptor (membranes)
Test: Cyclase assay (cAMP production in membranes of HeLa 5HT6 cells, 5-HT stimulated)
Type: biochemical
Conditions: 5-HT at 4xEC50, functional Ki by Cheng-Prusoff, read-out: pKi values (converted)
Method: 0.5 μl of test compound in 100% dimethylsulfoxide (DMSO) was added to a white, solid 384 well assay plate (for dose response measurements the top of the concentration range is 7.5 μM final). 10 μl of washed membranes of HeLa 5HT6 cells (for preparation see WO 98/27081) in basic buffer (50 mM HEPES pH 7.4 (KOH), 10 mM MgCl2, 100 mM NaCl, 10 μM 3-isobutyl-1-methylxanthine (IBMX) (Sigma-Aldrich)) was added to all wells followed by 10 μl 2×ATP buffer (i.e. basic buffer containing 3 mM ATP) with 5-HT (at a concentration equivalent to a dose response of 4×EC50). The resultant mixture was then incubated at room temperature for 30-45 minutes to allow cAMP production. cAMP production was then measured using the DiscoveRX™ HitHunter™ chemiluminescence cAMP assay kit (DiscoveRx Corporation, 42501 Albrae Street, Fremont, Calif. 94538; Product Code: 90-0004L) or any other suitable cAMP measurement assay.
IC50 values were estimated from arbitrary designated unit (ADU) measurements from a Perkin Elmer Viewlux instrument using a four parameter logistic curve fit within EXCEL (Bowen, W. P. and Jerman, J. C. (1995), Nonlinear regression using spreadsheets. Trends in Pharmacol. Sci., 16, 413-417). Functional Ki values were calculated using the method of Cheng, Y. C. and Prussof, W. H. (Biochemical Pharmacol (1973) 22 3099-3108). plC50 and fpKi are the negative log 10 of the molar IC50 and functional Ki respectively.

T1 sequence (P50406 whole entry): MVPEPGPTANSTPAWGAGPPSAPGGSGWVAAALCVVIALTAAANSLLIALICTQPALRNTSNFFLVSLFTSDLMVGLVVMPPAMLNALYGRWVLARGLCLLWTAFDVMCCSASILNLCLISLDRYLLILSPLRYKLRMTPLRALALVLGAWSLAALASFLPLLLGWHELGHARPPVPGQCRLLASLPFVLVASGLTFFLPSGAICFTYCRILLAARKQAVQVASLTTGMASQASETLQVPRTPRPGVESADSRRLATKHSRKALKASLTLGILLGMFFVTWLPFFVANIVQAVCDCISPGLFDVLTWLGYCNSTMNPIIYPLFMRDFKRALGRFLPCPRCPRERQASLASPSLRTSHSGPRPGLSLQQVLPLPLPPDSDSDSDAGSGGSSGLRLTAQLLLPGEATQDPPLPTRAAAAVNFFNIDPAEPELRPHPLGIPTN

Row | Ki [nM] | Compound
1 | ≤ 10 | CCN1CCC(N2CCc3cc(S(=O)(=O)c4cccc(Cl)c4)ccc32)CC1 [Example E54, 5-[((3-Chlorophenyl)sulfonyl]-1-(1-ethyl-4-piperidinyl)-2,3-dihydro-1H-indole hydrochloride]
2 | ≤ 10 | CN1CCCC(N2CCc3cc(S(=O)(=O)c4ccccc4)ccc32)CC1 (stereo not shown) [Example E31, 1-(1-Methylhexahydro-1H-azepin-4-yl)-5-(phenylsulfonyl)-2,3-dihydro-1H-indole hydrochloride]
3 | ≤ 10 | CCCN1CCC(N2CCc3cc(S(=O)(=O)c4cc(F)cc(F)c4)ccc32)CC1 [Example E34, 5-[(3,5-Difluorophenyl)sulfonyl]-1-(1-propyl-4-piperidinyl)-2,3-dihydro-1H-indole hydrochloride]
4 | ≤ 10 | CN1CCC(N2CCc3cc(S(=O)(=O)c4ccccc4)cc(Cl)c32)CC1 [Example E32, 7-Chloro-1-(1-methyl-4-piperidinyl)-5-(phenylsulfonyl)-2,3-dihydro-1H-indole hydrochloride]
5 | ≤ 10 | CCCN1CCC(N2CCc3cc(S(=O)(=O)c4cccc(C)c4)ccc32)CC1 [Example E64, 5-[(3-Methylphenyl)sulfonyl]-1-(1-propyl-4-piperidinyl)-2,3-dihydro-1H-indole hydrochloride]
6 | ≤ 10 | CCCN1CCC(N2CCc3cc(S(=O)(=O)c4cccc(F)c4)ccc32)CC1 [Example E56, 5-[(3-Fluorophenyl)sulfonyl]-1-(1-propyl-4-piperidinyl)-2,3-dihydro-1H-indole hydrochloride]
7 | ≤ 10 | CN1CCC(N2CCc3cc(S(=O)(=O)c4ccc(F)c(F)c4)ccc32)CC1 [Example E59, 5-[(3,4-Difluorophenyl)sulfonyl]-1-(1-methyl-4-piperidinyl)-2,3-dihydro-1H-indole hydrochloride]
8 | ≤ 10 | O=S(=O)(c1ccc2c(c1)CCN2C1CCNCC1)c1ccccc1Cl [Example E12, 5-[(2-Chlorophenyl)sulfonyl]-1-(4-piperidinyl)-2,3-dihydro-1H-indole hydrochloride]
9 | ≤ 10 | CN1CCC(N2CCc3cc(S(=O)(=O)c4cc(F)cc(F)c4)ccc32)CC1 [Example E50, 5-[(3,5-Difluorophenyl)sulfonyl]-1-(1-methyl-4-piperidinyl)-2,3-dihydro-1H-indole hydrochloride]
10 | ≤ 10 | O=S(=O)(c1ccccc1)c1cc(F)c2c(c1)CCN2C1CCNCC1 [Example E18a, 7-Fluoro-5-(phenylsulfonyl)-1-(4-piperidinyl)-2,3-dihydro-1H-indole hydrochloride]
11 | ≤ 10 | O=S(=O)(c1ccc(F)c(F)c1)c1ccc2c(c1)CCN2C1CCNCC1 [Example E25, 5-[(3,4-Difluorophenyl)sulfonyl]-1-(4-piperidinyl)-2,3-dihydro-1H-indole hydrochloride]
12 | ≤ 10 | Cc1cn(C2CCNCC2)c2ccc(S(=O)(=O)c3ccccc3)cc12 [Example E65, 3-Methyl-5-(phenylsulfonyl)-1-(4-piperidinyl)-1H-indole hydrochloride]
13 | ≤ 10 | CCN1CCC(n2ccc3cc(S(=O)(=O)c4cc(F)cc(F)c4)ccc32)CC1 [Example E35, 1-(1-Ethyl-4-piperidinyl)-5-[(3,5-difluorophenyl)sulfonyl]-1H-indole hydrochloride]
14 | ≤ 10 | CC(C)N1CCC(N2CCc3cc(S(=O)(=O)c4cc(F)ccc4F)ccc32)CC1 [Example E43, 5-[(2,5-Difluorophenyl)sulfonyl]-1-[1-(1-methylethyl)-4-piperidinyl]-2,3-dihydro-1H-indole hydrochloride]
15 | ≤ 10 | O=S(=O)(c1ccccc1)c1ccc2c(c1)CCN2C1CCNC1 (stereo not shown) [Example E17a, 5-(Phenylsulfonyl)-1-(3-pyrrolidinyl)-2,3-dihydro-1H-indole]
16 | ≤ 10 | Cc1ccc(S(=O)(=O)c2ccc3c(c2)CCN3C2CCNCC2)cc1 [Example E11, 5-[(4-methylphenyl)sulfonyl]-1-(4-piperidinyl)-2,3-dihydro-1H-indole]
17 | ≤ 10 | CCCN1CCC(N2CCc3cc(S(=O)(=O)c4cc(F)ccc4F)ccc32)CC1 [Example E44, 5-[(2,5-Difluorophenyl)sulfonyl]-1-(1-propyl-4-piperidinyl)-2,3-dihydro-1H-indole hydrochloride]
18 | ≤ 10 | O=S(=O)(c1cccc(F)c1)c1ccc2c(ccn2C2CCNCC2)c1 [Example E22, 5-[(3-Fluorophenyl)sulfonyl]-1-(4-piperidinyl)-1H-indole hydrochloride]
19 | ≤ 10 | N#Cc1ccccc1S(=O)(=O)c1ccc2c(c1)CCN2C1CCNCC1 [Example E20, 2-{[1-(4-Piperidinyl)-2,3-dihydro-1H-indol-5-yl]sulfonyl}-benzonitrile hydrochloride]

Row | Ki [nM] | Compound
20 | ≤ 10 | CN1CCC(N2CCc3cc(S(=O)(=O)c4ccccc4)ccc32)CC1 [Example E4, 1-(1-Methyl-4-piperidinyl)-5-(phenylsulfonyl)-2,3-dihydro-1H-indole hydrochloride]
21 | ≤ 10 | O=S(=O)(c1cccc(F)c1)c1ccc2c(c1)CCN2C1CCNCC1 [Example E8, 5-[(3-Fluorophenyl)sulfonyl]-1-(4-piperidinyl)-2,3-dihydro-1H-indole hydrochloride]
22 | ≤ 10 | CCN1CCC(N2CCc3cc(S(=O)(=O)c4cc(F)cc(F)c4)ccc32)CC1 [Example E51, 5-[(3,5-Difluorophenyl)sulfonyl]-1-(1-ethyl-4-piperidinyl)-2,3-dihydro-1H-indole hydrochloride]
23 | ≤ 10 | CCN1CCC(N2CCc3cc(S(=O)(=O)c4cccc(F)c4)ccc32)CC1 [Example E55, 5-[(3-Fluorophenyl)sulfonyl]-1-(1-ethyl-4-piperidinyl)-2,3-dihydro-1H-indole hydrochloride]
24 | ≤ 10 | CCN1CCC(N2CCc3cc(S(=O)(=O)c4cccc(C)c4)ccc32)CC1 [Example E63, 5-[(3-Methylphenyl)sulfonyl]-1-(1-ethyl-4-piperidinyl)-2,3-dihydro-1H-indole hydrochloride]
25 | ≤ 10 | CCN1CCC(N2CCc3cc(S(=O)(=O)c4ccccc4F)ccc32)CC1 [Example E58, 5-[(2-Fluorophenyl)sulfonyl]-1-(1-ethyl-4-piperidinyl)-2,3-dihydro-1H-indole hydrochloride]
26 | ≤ 10 | O=S(=O)(c1ccc(Cl)cc1)c1ccc2c(c1)CCN2C1CCNCC1 [Example E13, 5-[(4-Chlorophenyl)sulfonyl]-1-(4-piperidinyl)-2,3-dihydro-1H-indole hydrochloride]
27 | < 316 | CC(C)(C)CN1CCC(N2CCc3cc(S(=O)(=O)c4ccccc4)ccc32)CC1 [Example E38, 1-[1-(2,2-dimethylpropyl)-4-piperidinyl]-5-(phenylsulfonyl)-2,3-dihydro 1H-indole]
28 | ≤ 10 | CN1CCC(N2CCc3cc(S(=O)(=O)c4ccccc4Cl)ccc32)CC1 [Example E49, 5-[(2-Chlorophenyl)sulfonyl]-1-(1-methyl-4-piperidinyl)-2,3-dihydro-1H-indole hydrochloride]
29 | ≤ 10 | N#Cc1cccc(S(=O)(=O)c2ccc3c(c2)CCN3C2CCNCC2)c1 [Example E21, 3-{[1-(4-Piperidinyl)-2,3-dihydro-1H-indol-5-yl]sulfonyl}benzonitrile hydrochloride]
30 | ≤ 10 | O=S(=O)(c1ccc2c(ccn2C2CCNCC2)c1)c1ccccc1F [Example E14, 5-[(2-fluorophenyl)sulfonyl]-1-(4-piperidinyl)-1H-indole hydrochloride]
31 | ≤ 10 | CC(C)N1CCC(N2CCc3cc(S(=O)(=O)c4cccc(F)c4)ccc32)CC1 [Example E57, 5-[(3-Fluorophenyl)sulfonyl]-1-(1-(1-methylethyl)-4-piperidinyl)-2,3-dihydro-1H-indole hydrochloride]
32 | ≤ 10 | CC(C)N1CCC(N2CCc3cc(S(=O)(=O)c4ccccc4F)ccc32)CC1 [Example E45, 5-[(2-Fluorophenyl)sulfonyl]-1-[1-(1-methylethyl)-4-piperidinyl]-2,3-dihydro-1H-indole hydrochloride]
33 | ≤ 10 | CCN1CCC(n2ccc3cc(S(=O)(=O)c4cccc(F)c4)ccc32)CC1 [Example E33, 1-(1-Ethyl-4-piperidinyl)-5-[(3-fluorophenyl)sulfonyl]-1H-indole hydrochloride]
34 | ≤ 10 | Cc1cccc(S(=O)(=O)c2ccc3c(c2)CCN3C2CCNCC2)c1 [Example E26, 5-[(3-Methylphenyl)sulfonyl]-1-(4-piperidinyl)-2,3-dihydro-1H-indole hydrochloride]
35 | ≤ 10 | O=S(=O)(c1ccc2c(c1)CCN2C1CCNCC1)c1ccccc1F [Example E9, 5-[(2-Fluorophenyl)sulfonyl]-1-(4-piperidinyl)-2,3-dihydro-1H-indole hydrochloride]
36 | < 316 | Cc1nn(C)c(C)c1S(=O)(=O)c1ccc2c(c1)CCN2C1CCNCC1 [Example E29, 1-(4-Piperidinyl)-5-[(1,3,5-trimethyl-1H-pyrazol-4-yl)sulfonyl]-2,3-dihydro-1H-indole hydrochloride]
37 | ≤ 10 | O=S(=O)(c1ccccc1)c1ccc2c(c1)CCN2C1CCCNCC1 (stereo not shown) [Example E16a, 1-(Hexahydro-1H-azepin-4-yl)-5-(phenylsulfonyl)-2,3-dihydro-1H-indole]
